In PubChem BioAssay AID2305 (GlaxoSmithKline (GSK), 2010):
pIC50: −log10 of the molar value.

Tested on: P. falciparum 3D7 growth, pLDH absorbance
Assay: P. falciparum 3D7 growth inhibition, dose response, strain 3D7 (AID 2305)

Compound	pIC50
CCn1c(-c2nonc2N)nc2c(-c3cccc(NC(=O)Nc4cccc(Cl)c4)c3)ncc(OCCCN)c21	6.03
O=C(O)CNCC(O)c1ccccc1 (centres undefined)	6.74
CC(C)(CNCc1ccc(Cl)c(Cl)c1)c1nc(-c2ccc(Cl)c(O)c2)c(-c2ccncc2)[nH]1	6.12
CC(C)(C)c1ccc(C(=O)N2CCC3(CC2)C(=O)N(CC(=O)NCC2CCCO2)CN3c2ccccc2)cc1 (centres undefined)	6.64
O=C(/C=C/c1ccc(Cl)c(Cl)c1)NCCCCCN1CC[C@H](NC(=O)c2ccc3c(c2)OCO3)C1	6.03
C=CCN1C(=O)C(=Cc2cc(Br)ccc2O)SC1=Nc1ccccc1	6.05
CCCNCc1ccc(-c2ccc(CN(Cc3ccc4c(c3)OCO4)C(=O)Cc3cccnc3)cc2)nc1	6.07
O=C(Nc1ccc(N2CCN(Cc3cccc(F)c3)CC2)cc1)c1cccs1	6.17
COc1ccccc1C1CCN(C2CCC(NC(=O)/C=C/c3ccc(OC(F)(F)F)cc3)CC2)CC1 (centres undefined)	5.87
CCc1ccc(N2C(N)=NC(N)=NC2(C)C)cc1	8.00
O=C(NCCCCN1CCC(c2ccc3c(c2OCCN2CCCC2)CCCC3)CC1)c1ccc(-c2ccc(C(F)(F)F)cc2)cc1	6.35
CO/C(=C\C=C\c1cc2cc(Cl)c(Cl)cc2[nH]1)C(=O)NCCCN1CCN(C2CCCCC2)CC1	6.00
c1ccc(-c2ccc3c(Nc4ccc5[nH]ccc5c4)ccnc3c2)nc1	6.03
CC(C)CCN=C(N)Nc1ccc(OCCCCCOc2ccc(NC(N)=NCCC(C)C)cc2)cc1	5.97
CC(CN1CCN(C)CC1)C(=O)Nc1cccc(-c2ccc(-c3nc4ccccc4[nH]3)cc2)c1 (centres undefined)	6.03
NCc1cccc(-c2cccc(CNC3CCN(Cc4ccccc4)CC3)c2)c1	6.14
O=C(C=Cc1ccc(Br)cc1)NC1CCC(CN2CCC(c3c[nH]c4ccccc34)CC2)CC1 (centres undefined)	6.17
COc1ccc2nccc([C@@H](O)CN3CCC(NC(=O)/C=C/c4ccc5ccccc5n4)CC3)c2c1	6.00
N#Cc1ccc(N[C@@H](CC2CCCCC2)C(=O)NCc2cc(F)c(F)cc2F)c2ccccc12	6.02
COCCCNC(=O)[C@H]1CNCCN1C(=O)c1ccccc1	6.10

Compound	pIC50
CC[C@@H]([C@@H](CC(C)C)C(=O)N[C@@H](CCCCNC(=O)OCc1ccccc1)C(=O)Nc1ccccn1)N(O)C=O	6.96
COc1ccc2nccc([C@@H](O)CN3CCC(NCCOc4cc(F)cc(F)c4)CC3)c2c1	6.80
C=CCOc1ccc2ccccc2c1CNCCCCCCNCc1c(OCC=C)ccc2ccccc12	6.07
CNCc1ccc(-c2ccc3ccnc(N)c3c2)cc1	6.59
CCN(CC)CCN(Cc1ccc(-c2ccc(C(F)(F)F)cc2)cc1)C(=O)Cn1c(CCc2cccc(F)c2F)cc(=O)c2c1CCCC2	6.06
CCN(CC)CCNc1ccnc2ccc3ccccc3c12	6.66
Cc1[nH]cnc1-c1cccc(NC(=O)c2cc3ccccc3s2)c1	6.68
c1cc(CNCc2ccc3c(c2)OCO3)cc(-c2cccc(CNc3ccc4ncccc4c3)c2)c1	6.12
Cc1ccc2nc3c(cc(C(=O)NCCc4ccccc4)c(=N)n3CCCOC(C)C)c(=O)n2c1	6.05
Cc1cc(N2CCCC2)nc(Nc2ccc(NC(=O)c3cccc(F)c3)cc2)n1	6.74
COc1ccccc1C1CN(CCNC(=O)c2ncc(C)[nH]2)Cc2ccccc2O1 (centres undefined)	6.10
COc1ccc(-c2ccc(NC(=O)c3cccc(Cl)c3)cc2)cc1CN(C)CCO	6.15
CN1CCN(c2ccnc3ccc(NC(=O)c4ccc(Cl)c(Cl)c4)cc23)CC1	6.15
COc1ccc(C(=O)NC(c2ccc(Cl)cc2Cl)c2cc(Cl)c3cccnc3c2O)cc1 (centres undefined)	6.30
Cc1ccc(Cn2cnc3cc(C(=O)Nc4ccc(-c5cccc(CN(C)C)c5)cc4)ccc3c2=O)o1	6.20
Cc1cnc(Nc2ccccc2)nc1N[C@@H](CCCN)C(=O)Nc1ccccc1	6.09
COc1ccc(CNCc2cccc(-c3ccc(-c4nc5c(C)cccc5[nH]4)cc3)c2)cc1	6.62
Nc1nc(N)c2c(ccc3c2ccn3Cc2ccc(OCc3ccccc3)cc2)n1	6.03
COCCNCc1ncsc1-c1ccc2c(Nc3ccc(Oc4ccccc4)cc3)ccnc2c1	6.05
